Values quoted from earlier work as cited in publication PMC2832019, “In Vitro Metabolic and Mitogenic Signaling of Insulin Glargine and Its Metabolites” (PLoS ONE, 2010).
Like-named read-outs stand apart in the source and are kept apart here.

Columns and labels:
[1] = no reference given, cited from earlier work
Text: These alterations cause a shift in the isoelectric point from pH 5.4 to 6.7. Following subcutaneous administration as a clear solution of pH 4, insulin gla ...

[2] = system: BT474, T47D, ZR75-1, MDA-MB231, HCC1937; conditions: ref [15]; cited from earlier work
Text: (§1) A correlation between IGF1R autophosphorylation and cell proliferation has been recently assumed by Shukla et al., who observed an enhanced growth of the malignant cell line MCF7 after insulin glargine stimulation. The authors have observed 10% and 50% increases of cellular proliferation at 0.31 and about 15 nmol/L. This effect seemed to be linked to activation of the IGF1R and the MAPK pathway, since siRNA knockdown of IGF1R decreased the response. Unfortunately, no dose-response curve of IGF1R autophosphorylation as well as no proliferation data from siRNA knockdown of IR have ...

MCF10 = conditions: benign cell line; ref [15]; cited from earlier work
Text: as §1

Sprague-Dawley rats = conditions: rat, in vivo; cited from earlier work
Saos-2 = system: Saos-2; design: method as in PMID 10866053; conditions: ref [12]; cited from earlier work
[3] = system: MCF-7 cells, HCT-116 (colorectal cancer) and PC-3 (prostate cancer) cells; conditions: ref [49]; cited from earlier work
Text: as §1, with “This effect seemed to be linked to activation of the IGF1R and the MAPK pathway, since siRNA knockdown of IGF1R decreased the response.” left out

rats = conditions: 2-year life-time, relative to human insulin, ref [59]; cited from earlier work
Text: In these studies plasma insulin concentrations were 15 to 25 nmol/L, covering parent compound and active metabolites. In consequence, actual glargine concentrations may be overestimated, the extent of which depends on the degree of proteolytic degradation at both the injection site and the serum. Quantitative assessment of the insulin glargine metabolism in humans is evolving, and will bring further clarification.

[4] = system: MCF7 and other tumor cell lines; conditions: ref [14]; cited from earlier work
Text: as §1

MCF-7 and SKBR-3 cells = conditions: ref [48]; cited from earlier work
Text: as §1

MCF7 = conditions: ref [15], cited from earlier work
Text: as §1

[5] = after injection, healthy subjects and patients with type 1 diabetes; ref [52]–[55]; cited from earlier work
Text: The therapeutic insulin glargine concentrations reported so far are 80- to 200-fold below the total plasma concentrations of IGF-1. […] Therefore, the concentration of free IGF-1 may be within the range of the plasma concentration of insulin glarg ...

[6] = in vivo, sc; cited from earlier work

Human insulin: human insulin produced by recombinant DNA techniques or enzymatic semisynthesis
isoelectric point [1]: 5.4 pH
response of cell lines to human insulin [2]: did not respond
difference between human insulin and insulin glargine (MCF10): did not show any difference

[Asp^B10]insulin
incidence of breast cancer (Sprague-Dawley rats): higher incidence of breast cancer
proliferation rate of Saos-2 (Saos-2): higher proliferation rate

[Gly^A21,Arg^B31,Arg^B32]insulin [Glargine]
mitogenic potency [3]: increased mitogenic potency
isoelectric point [1]: 6.7 pH
solubility ([1]; physiological pH): low solubility at physiological pH
tumor-promoting activity (rats): without evidence of tumor-promoting activity greater than human insulin
mitogenic activity relative to human insulin [4]: no evidence for an increased mitogenic activity
difference between human insulin and insulin glargine (MCF10): did not show any difference
mitogenic activity (MCF-7 and SKBR-3 cells): slightly increased mitogenic activity of insulin glargine without statistical significance
increase of cellular proliferation (MCF7; at 0.31 nmol/L): 10%
increase of cellular proliferation (MCF7; at about 15 nmol/L): 50%
peak free serum insulin glargine level [5]: < 200 pmol/L

[Gly^A21,Arg^B31]insulin [Glargine IM]
amount of metabolite [6]: only in minor quantities
